# Assay results taken from patent US20240360113A1, “AMINOARYL-INTEGRIN AGONISTS COMPOUNDS” (Texas Heart Institute, priority 2021, published 2024).
# Tests used:
# αLβ2/ICAM-1 = target: T1, αLβ2/ICAM-1 (Homo sapiens, UniProt P05107+P20701); assay: Static cell adhesion assay, HSB cells on ICAM-1 (LFA-1; LAD); format: cell-based; details: RFU of compound / RFU of THI0349, both at the same concentration
# T1 construct: The Jurkat (VCAM-1 assays) and HSB (ICAM-1 assays) cell lines were obtained from American Type Culture Collection; endogenous in cells; host or cells: HSB (ATCC)
# T1 sequence (P20701 26-1170): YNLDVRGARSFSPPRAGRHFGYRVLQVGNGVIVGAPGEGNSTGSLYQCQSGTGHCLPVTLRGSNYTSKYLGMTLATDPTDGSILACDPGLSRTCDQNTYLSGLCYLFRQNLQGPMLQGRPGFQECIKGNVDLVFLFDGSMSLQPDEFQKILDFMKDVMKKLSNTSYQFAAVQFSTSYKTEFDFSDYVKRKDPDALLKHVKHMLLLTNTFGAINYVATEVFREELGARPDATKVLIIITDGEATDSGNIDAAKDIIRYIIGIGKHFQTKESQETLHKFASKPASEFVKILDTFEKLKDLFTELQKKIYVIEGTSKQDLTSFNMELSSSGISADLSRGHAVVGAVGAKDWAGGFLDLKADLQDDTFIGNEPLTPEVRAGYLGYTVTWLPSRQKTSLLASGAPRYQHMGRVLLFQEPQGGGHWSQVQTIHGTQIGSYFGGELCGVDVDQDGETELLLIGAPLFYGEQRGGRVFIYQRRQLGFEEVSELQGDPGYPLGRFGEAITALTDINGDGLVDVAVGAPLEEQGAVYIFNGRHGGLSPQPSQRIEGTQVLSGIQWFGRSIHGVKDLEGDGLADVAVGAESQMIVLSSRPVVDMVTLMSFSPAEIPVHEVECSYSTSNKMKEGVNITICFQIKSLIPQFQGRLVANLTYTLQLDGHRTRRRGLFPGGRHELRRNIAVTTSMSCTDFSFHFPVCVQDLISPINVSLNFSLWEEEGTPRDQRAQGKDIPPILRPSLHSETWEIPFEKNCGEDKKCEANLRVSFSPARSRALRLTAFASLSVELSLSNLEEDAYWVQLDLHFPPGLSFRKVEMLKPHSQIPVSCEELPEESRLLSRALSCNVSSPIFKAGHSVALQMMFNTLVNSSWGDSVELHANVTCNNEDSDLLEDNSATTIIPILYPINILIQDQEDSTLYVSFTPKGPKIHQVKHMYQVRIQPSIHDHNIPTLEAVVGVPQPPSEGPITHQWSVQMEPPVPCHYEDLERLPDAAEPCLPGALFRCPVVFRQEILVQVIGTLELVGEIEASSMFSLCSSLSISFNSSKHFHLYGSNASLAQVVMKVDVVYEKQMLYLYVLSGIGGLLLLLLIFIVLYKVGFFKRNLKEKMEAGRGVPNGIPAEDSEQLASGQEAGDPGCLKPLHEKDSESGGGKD
# T1 sequence (P05107 23-769): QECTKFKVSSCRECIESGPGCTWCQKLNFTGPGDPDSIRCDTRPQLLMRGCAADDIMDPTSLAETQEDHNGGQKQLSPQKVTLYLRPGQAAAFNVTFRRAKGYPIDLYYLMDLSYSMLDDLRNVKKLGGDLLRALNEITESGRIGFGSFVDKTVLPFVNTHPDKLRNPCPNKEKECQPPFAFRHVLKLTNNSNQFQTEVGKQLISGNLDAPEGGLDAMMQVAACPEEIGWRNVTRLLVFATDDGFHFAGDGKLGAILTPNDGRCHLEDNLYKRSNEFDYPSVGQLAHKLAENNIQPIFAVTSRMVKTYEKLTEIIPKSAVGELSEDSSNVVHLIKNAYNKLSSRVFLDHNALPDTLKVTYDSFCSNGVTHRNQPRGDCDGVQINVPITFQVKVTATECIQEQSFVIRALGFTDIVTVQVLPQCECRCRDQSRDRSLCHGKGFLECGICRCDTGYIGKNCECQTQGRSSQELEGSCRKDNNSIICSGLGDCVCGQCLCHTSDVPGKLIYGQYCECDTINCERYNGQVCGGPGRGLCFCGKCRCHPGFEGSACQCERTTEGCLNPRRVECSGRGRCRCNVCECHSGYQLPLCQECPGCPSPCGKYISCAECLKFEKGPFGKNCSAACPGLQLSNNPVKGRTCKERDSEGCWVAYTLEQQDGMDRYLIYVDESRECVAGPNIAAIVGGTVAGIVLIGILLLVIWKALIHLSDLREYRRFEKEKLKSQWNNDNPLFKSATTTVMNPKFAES
# Method: (§1) For in vitro cell adhesion assays, compounds were dissolved in DMSO to make a series of stock solutions such that a 1:100 dilution in assay buffer would yield the desired final working concentrations in 1% DMSO (vehicle). Human VCAM-1 and ICAM-1 were purchased from R&D Systems (Minneapolis, MN). The Jurkat (VCAM-1 assays) and HSB (ICAM-1 assays) cell lines were obtained from American Type Culture Collection (Manassas, VA) and were maintained in recommended culture media.
# (§2) Assays were performed as previously described in Vanderslice et al., (2010), Biochem Biophys Res Commun 400, 619-624; and Vanderslice et al., (2013) J Biol Chem 288, 19414-19428. VCAM-1 or ICAM-1 ligand in 50 μL of 50 mM Tris-HCl (pH 7.4), 150 mM NaCl, (TBS) was added to wells of a 96-well plate and allowed to coat overnight at 4° C. To maximize the window to evaluate agonist activity, a sub-optimal coating concentration of ligand was used, typically 0.5 and 5 μg/mL in 50 μL TBS for VCAM-1 and ICAM-1 respectively. This ligand concentration corresponded approximately to that which would yield <5% adhesion as determined by dose-response curves. Briefly, 2×10^6 cells were labeled for 30 minutes with calcein-AM (Molecular Probes), washed, resuspended in binding buffer, and added to triplicate wells of ligand-coated plates (2×10^5 cells/well) that had been blocked with 2% BSA. After a 30-minute incubation at 37° C., the plates were washed 3 times with binding buffer, the adherent cells were lysed, and fluorescence was measured on a Tecan Safire^2 plate reader. The binding buffer was PBS with 1 mM MgCl2, 50% FBS for α4β1/VCAM-1 assays and PBS with 2 mM MgCl2, 5 mM EGTA, 50% FBS for αLβ2/ICAM-1 assays. EC50 is defined as the concentration of compound required to achieve 50% of the maximal response.
# In relation to LAD (Leukocyte Adhesion Deficiency), LFA-1 ratios are determined by dividing the relative fluorescence units (RFU) of each compound at a concentration of 3 μM over that of the reference standard of THI0349, also at 3 μM, (RFU Compound/RFU of THI0349). Log Ps were calculated by either Chemdraw® version 12 (CambridgeSoft) or ACD/Chemsketch® (ACD/Labs).
# α4β1/VCAM-1 = target: T2, α4β1/VCAM-1 (Homo sapiens, UniProt P05556+P13612); assay: Static cell adhesion assay, Jurkat cells on VCAM-1 (VLA-4 agonist activity); format: cell-based; details: EC50 relative to THI0349 (average 11 uM) run on the same plate; Jurkat cells, 50% FBS
# T2 construct: The Jurkat (VCAM-1 assays) and HSB (ICAM-1 assays) cell lines were obtained from American Type Culture Collection; endogenous in cells; host or cells: Jurkat (ATCC)
# T2 sequence (P13612 34-1032): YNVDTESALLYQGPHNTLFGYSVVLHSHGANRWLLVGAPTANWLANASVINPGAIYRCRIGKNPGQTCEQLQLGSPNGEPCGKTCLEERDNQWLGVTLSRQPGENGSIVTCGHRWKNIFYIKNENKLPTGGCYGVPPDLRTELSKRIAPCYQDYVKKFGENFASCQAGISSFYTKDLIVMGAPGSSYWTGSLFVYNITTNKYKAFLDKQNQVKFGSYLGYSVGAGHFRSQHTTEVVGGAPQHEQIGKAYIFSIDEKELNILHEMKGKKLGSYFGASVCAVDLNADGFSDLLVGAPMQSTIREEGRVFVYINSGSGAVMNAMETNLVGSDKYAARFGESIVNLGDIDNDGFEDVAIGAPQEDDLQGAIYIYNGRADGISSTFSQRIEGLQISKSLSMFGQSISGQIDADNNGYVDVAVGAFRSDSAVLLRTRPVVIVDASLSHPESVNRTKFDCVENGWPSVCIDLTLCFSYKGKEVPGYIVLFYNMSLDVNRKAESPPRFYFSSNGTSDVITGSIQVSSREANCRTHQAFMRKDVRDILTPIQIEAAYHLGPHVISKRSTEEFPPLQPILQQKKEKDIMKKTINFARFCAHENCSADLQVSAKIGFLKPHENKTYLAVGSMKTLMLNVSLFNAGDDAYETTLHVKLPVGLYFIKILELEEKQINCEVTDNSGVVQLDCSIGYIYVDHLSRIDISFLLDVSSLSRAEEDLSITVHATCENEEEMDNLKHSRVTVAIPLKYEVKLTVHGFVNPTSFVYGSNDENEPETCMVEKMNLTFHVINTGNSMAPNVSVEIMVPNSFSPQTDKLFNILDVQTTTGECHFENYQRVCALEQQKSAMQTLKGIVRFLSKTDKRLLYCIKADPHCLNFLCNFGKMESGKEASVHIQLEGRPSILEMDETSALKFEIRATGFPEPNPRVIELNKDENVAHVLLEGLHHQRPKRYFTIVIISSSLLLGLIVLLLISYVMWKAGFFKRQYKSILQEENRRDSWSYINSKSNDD
# T2 sequence (P05556 21-798): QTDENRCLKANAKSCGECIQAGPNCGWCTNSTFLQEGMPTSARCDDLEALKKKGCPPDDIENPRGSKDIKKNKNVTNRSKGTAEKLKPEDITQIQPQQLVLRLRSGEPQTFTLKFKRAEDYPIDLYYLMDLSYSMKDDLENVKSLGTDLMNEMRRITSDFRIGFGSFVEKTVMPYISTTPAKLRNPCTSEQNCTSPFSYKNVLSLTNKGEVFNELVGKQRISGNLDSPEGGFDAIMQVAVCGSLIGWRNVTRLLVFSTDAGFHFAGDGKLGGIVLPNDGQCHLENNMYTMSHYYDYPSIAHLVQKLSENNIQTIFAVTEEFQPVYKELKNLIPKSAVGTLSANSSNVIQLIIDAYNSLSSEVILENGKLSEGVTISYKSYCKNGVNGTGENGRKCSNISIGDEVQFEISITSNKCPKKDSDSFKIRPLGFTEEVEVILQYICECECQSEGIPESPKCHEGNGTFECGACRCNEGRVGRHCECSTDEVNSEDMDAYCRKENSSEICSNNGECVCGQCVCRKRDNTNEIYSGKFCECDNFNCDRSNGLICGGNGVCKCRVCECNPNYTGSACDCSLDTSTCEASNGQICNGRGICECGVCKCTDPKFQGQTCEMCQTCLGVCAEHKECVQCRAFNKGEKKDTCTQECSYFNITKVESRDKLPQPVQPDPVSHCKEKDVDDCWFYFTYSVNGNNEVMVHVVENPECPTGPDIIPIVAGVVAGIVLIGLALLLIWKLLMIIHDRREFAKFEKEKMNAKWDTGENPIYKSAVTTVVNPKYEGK
# Method: as §1, §2
Structure (SMILES),LAD Raw Fluorescence Units against LFA-1; Dose 3 µM; Ratio of raw counts Compound/THI0349 (αLβ2/ICAM-1),Group against VCAM (α4β1/VCAM-1)
"COc1cccc(CN(Cc2cccc(OC)c2)c2nc(COCCOc3cccc(N(C)C)c3)cs2)c1 [Compound 48, 4-((2-(3-(dimethylamino)phenoxy)ethoxy)methyl)-N,N-bis(3-methoxybenzyl)thiazol-2-amine]",0.43,I (Group I maintains at least the same potency or better up to more than twice that of the EC50 of THI0349 ran on the same plate)
"COc1cccc(CN(Cc2cccc(OC)c2)c2nc(COCCOc3ccc(Cl)cc3)cs2)c1 [Compound 49, 4-((2-(4-chlorophenoxy)ethoxy)methyl)-N,N-bis(3-methoxybenzyl)thiazol-2-amine]",0.63,II (Group II is more than twice that of THI0349 but less than five times THI0349's EC50)
"COc1cccc(CN(Cc2cccc(OC)c2)c2nc(COCCOc3cccc(C#N)c3)cs2)c1 [Compound 50, 3-(2-((2-(bis(3-methoxybenzyl)amino)thiazol-4-yl)methoxy)ethoxy)benzonitrile]",1.2,III (Group III more than five times the EC50 of THI0349)
"COc1cccc(CN(Cc2cccc(OC)c2)c2nc(COCCOc3ccc(N(C)C)cc3)cs2)c1 [Compound 51, 4-((2-(4-(dimethylamino)phenoxy)ethoxy)methyl)-N,N-bis(3-methoxybenzyl)thiazol-2-amine]",1.3,III (Group III more than five times the EC50 of THI0349)
"COc1cccc(CN(Cc2cccc(OC)c2)c2nc(COCCOc3ccccc3)cs2)c1 [Compound 52, N,N-bis(3-methoxybenzyl)-4-((2-phenoxyethoxy)methyl)thiazol-2-amine]",1.2,II (Group II is more than twice that of THI0349 but less than five times THI0349's EC50)
"COc1cccc(CN(Cc2cccc(OC)c2)c2nc(COCCOCCOCc3ccccc3)cs2)c1 [Compound 53, 4-((2-(2-(benzyloxy)ethoxy)ethoxy)methyl)-N,N-bis(3-methoxybenzyl)thiazol-2-amine]",1.06,I (Group I maintains at least the same potency or better up to more than twice that of the EC50 of THI0349 ran on the same plate)
"COc1cccc(CN(Cc2cccc(OC)c2)c2nc(COCCOCCOCc3ccccc3C)cs2)c1 [Compound 54, N,N-bis(3-methoxybenzyl)-4-((2-(2-((2-methylbenzyl)oxy)ethoxy)ethoxy)methyl)thiazol-2-amine]",1.8,I (Group I maintains at least the same potency or better up to more than twice that of the EC50 of THI0349 ran on the same plate)
"COc1cccc(COCCOCCOCc2csc(N(Cc3cccc(OC)c3)Cc3cccc(OC)c3)n2)c1 [Compound 55, N,N-bis(3-methoxybenzyl)-4-((2-(2-((3-methoxybenzyl)oxy)ethoxy)ethoxy)methyl)thiazol-2-amine]",1.1,I (Group I maintains at least the same potency or better up to more than twice that of the EC50 of THI0349 ran on the same plate)
"COc1cccc(CN(Cc2cccc(OC)c2)c2nc(COCCOCCOCc3ccccc3Cl)cs2)c1 [Compound 56, 4-((2-(2-((2-chlorobenzyl)oxy)ethoxy)ethoxy)methyl)-N,N-bis(3-methoxybenzyl)thiazol-2-amine]",1.2,III (Group III more than five times the EC50 of THI0349)
"COc1cccc(COCCOCc2csc(N(Cc3cccc(OC)c3)Cc3cccc(OC)c3)n2)c1 [Compound 57, N,N-bis(3-methoxybenzyl)-4-((2-(3-methoxybenzyloxy)ethoxy)methyl)thiazol-2-amine]",0.25,I (Group I maintains at least the same potency or better up to more than twice that of the EC50 of THI0349 ran on the same plate)
"COc1cccc(CN(Cc2cccc(OC)c2)c2nc(COCCOCc3ccccc3)cs2)c1 [Compound 58, 4-((2-(benzyloxy)ethoxy)methyl)-N,N-bis(3-methoxybenzyl)thiazol-2-amine]",0.48,I (Group I maintains at least the same potency or better up to more than twice that of the EC50 of THI0349 ran on the same plate)
"COc1cccc(CN(Cc2cccc(OC)c2)c2nc(COCCOCc3ccccc3Cl)cs2)c1 [Compound 59, 4-((2-((2-chlorobenzyl)oxy)ethoxy)methyl)-N,N-bis(3-methoxybenzyl)thiazol-2-amine]",1.0,II (Group II is more than twice that of THI0349 but less than five times THI0349's EC50)
"COc1cccc(CN(Cc2cccc(OC)c2)c2nc(COCCOCc3ccccc3C)cs2)c1 [Compound 60, N,N-bis(3-methoxybenzyl)-4-((2-((2-methylbenzyl)oxy)ethoxy)methyl)thiazol-2-amine]",0.92,I (Group I maintains at least the same potency or better up to more than twice that of the EC50 of THI0349 ran on the same plate)
"COc1cccc(CN(Cc2cccc(OC)c2)c2nc(COCCOCCN3CCOCC3)cs2)c1 [Compound 61, N,N-bis(3-methoxybenzyl)-4-((2-(2-morpholinoethoxy)ethoxy)methyl)thiazol-2-amine]",1.9,I (Group I maintains at least the same potency or better up to more than twice that of the EC50 of THI0349 ran on the same plate)

# Further lines, with some results ahead:
LAD Raw Fluorescence Units against LFA-1; Dose 3 µM; Ratio of raw counts Compound/THI0349 (αLβ2/ICAM-1),Structure (SMILES),Group against VCAM (α4β1/VCAM-1)
0.37,"COc1cccc(CN(Cc2cccc(OC)c2)c2nc(COCCOCCN3CCCCC3)cs2)c1 [Compound 62, N,N-bis(3-methoxybenzyl)-4-((2-(2-(piperidin-1-yl)ethoxy)ethoxy)methyl)thiazol-2-amine]",I (Group I maintains at least the same potency or better up to more than twice that of the EC50 of THI0349 ran on the same plate)
0.5,"COc1cccc(CN(Cc2cccc(OC)c2)c2nc(COCCOCCN3CCN(C)CC3)cs2)c1 [Compound 63, N,N-bis(3-methoxybenzyl)-4-((2-(2-(4-methylpiperazin-1-yl)ethoxy)ethoxy)methyl)thiazol-2-amine]",III (Group III more than five times the EC50 of THI0349)
0.31,"COc1cccc(CN(Cc2cccc(OC)c2)c2nc(COCCN3CCOCC3)cs2)c1 [Compound 64, N,N-bis(3-methoxybenzyl)-4-((2-morpholinoethoxy)methyl)thiazol-2-amine]",I (Group I maintains at least the same potency or better up to more than twice that of the EC50 of THI0349 ran on the same plate)
0.29,"COc1cccc(CN(Cc2cccc(OC)c2)c2nc(COCCN3CCCCC3)cs2)c1 [Compound 65, N,N-bis(3-methoxybenzyl)-4-((2-(piperidin-1-yl)ethoxy)methyl)thiazol-2-amine]",I (Group I maintains at least the same potency or better up to more than twice that of the EC50 of THI0349 ran on the same plate)
0.27,"COc1cccc(CN(Cc2cccc(OC)c2)c2nc(COCCN3CCN(C)CC3)cs2)c1 [Compound 66, N,N-bis(3-methoxybenzyl)-4-((2-(4-methylpiperazin-1-yl)ethoxy)methyl)thiazol-2-amine]",II (Group II is more than twice that of THI0349 but less than five times THI0349's EC50)
1.2,"COc1cccc(CN(Cc2cccc(OC)c2)c2nc(CN3CCOCC3)cs2)c1 [Compound 67, N,N-bis(3-methoxybenzyl)-4-(morpholinomethyl)thiazol-2-amine]",I (Group I maintains at least the same potency or better up to more than twice that of the EC50 of THI0349 ran on the same plate)
